Test results taken from patent US10022387B2, “Aza-heteroaryl compounds as PI3K-gamma inhibitors” (Incyte Corporation, priority 2015, dated 2018).

Test system: Phosphorylated Ribosomal Protein S6 (RPS6) in THP-1 cells
Assay: THP-1 RPS6 ELISA Assay
Assay type: cell-based
Conditions: Homo sapiens, 2 hours with compound, 10 nM MCP-1 for 15 minutes, read-out: THP p-RPS6 ELISA IC50
Experimental: To measure the Phosphorylated Ribosomal Protein S6 (RPS6) in cell lysates, THP-1 cells (Human Acute Monocytic Leukemia) are purchased from ATCC (Manassas, Va.) and maintained in RPMI with 10% FBS (Gibco/Life Technologies, Carlsbad, Calif.). For the assay, THP-1 cells are serum starved overnight in RPMI, then plated in RPMI (2×10^5 cells/well in 90 μL) into 96-well flat-bottom tissue culture treated plates (Corning, Corning, N.Y.), in the presence or absence of a concentration range of test compounds. Covered plates are incubated for 2 hours at 37° C., 5% CO2 then treated with or without 10 nM MCP-1 (MYBioSource, San Diego, Calif.) for 15 minutes at 37° C., 5% CO2. Plates are centrifuged at 1600 RPM and supernatants are removed. Cells are lysed in Lysis Buffer (Cell Signaling, Danvers, Mass.) with Protease Inhibitor (Calbiochem/EMD, Germany), PMSF (Sigma, St. Louis, Mo.), HALTS (Thermo Fisher, Rockford, Ill.) for 30 min on wet ice. Cell lysates are frozen at −80° C. before testing. The lysates are tested in the Human/Mouse/Rat Phospho-RPS6 ELISA (R&D Systems, Inc. Minn, Minn.). The plate is measured using a microplate reader (SpectraMax M5—Molecular Devices, LLC Sunnyvale, Calif.) set to 450 nm with a wavelength correction of 540. IC50 determination is performed by fitting the curve of inhibitor percent inhibition versus the log of the inhibitor concentration using the GraphPad Prism 5.0 software.

SMILES	IC50 [nM]
O=S(=O)(c1cncc(-c2ccc3nc(-c4nc5ccccc5[nH]4)oc3c2)c1)N1CCC(O)C1 (centres unmarked) [Example 58, 1-({5-[2-(1H-Benzimidazol-2-yl)-1,3-benzoxazol-6-yl]pyridin-3-yl}sulfonyl)pyrrolidin-3-ol bis(trifluoroacetate)]	≥ 5000
CN(C)S(=O)(=O)c1cncc(-c2ccc3nc(-c4nc5ccccc5[nH]4)oc3c2)c1 [Example 37, 5-[2-(1H-benzimidazol-2-yl)-1,3-benzoxazol-6-yl]-N,N-dimethylpyridine-3-sulfonamide]	< 5000
CCS(=O)(=O)Nc1cncc(-c2ccc3nc(-c4ncc[nH]4)oc3c2)c1 [Example 40, N-(5-(2-(1H-Imidazol-2-yl)benzo[d]oxazol-6-yl)pyridin-3-yl)ethanesulfonamide]	< 5000
CCS(=O)(=O)Nc1cc(-c2ccc3nc(-c4nc5ccccc5[nH]4)oc3c2)ccc1F [Example 60, N-{5-[2-(1H-Benzimidazol-2-yl)-1,3-benzoxazol-6-yl]-2-fluorophenyl}ethanesulfonamide]	≥ 5000
CS(=O)(=O)c1cncc(-c2ccc3nc(-c4nc5ccccc5[nH]4)oc3c2)c1 [Example 36, 2-(1H-Benzo[d]imidazol-2-yl)-6-(5-(methylsulfonyl)pyridin-3-yl)benzo[d]oxazole]	< 5000
CN(C)S(=O)(=O)Nc1cncc(-c2ccc3nc(-c4nc5ccccc5[nH]4)oc3c2)c1 [Example 21, N′-{5-[2-(1H-Benzimidazol-2-yl)-1,3-benzoxazol-6-yl]-pyridin-3-yl}-N,N-dimethylsulfamide]	< 1000
O=S(=O)(Nc1cncc(-c2ccc3nc(-c4ncc[nH]4)oc3c2)c1)c1ccc(F)cc1 [Example 39, N-(5-(2-(1H-Imidazol-2-yl)benzo[d]oxazol-6-yl)pyridin-3-yl)-4-fluorobenzenesulfonamide]	< 1000
CCS(=O)(=O)Nc1cc(-c2ccc3nc(-c4nc5ccccc5[nH]4)oc3c2)cnc1F [Example 27, N-(5-(2-(1H-Benzo[d]imidazol-2-yl)benzo[d]oxazol-6-yl)-2-fluoropyridin-3-yl)ethanesulfonamide]	< 1000
CN(C)S(=O)(=O)Nc1cc(-c2ccc3nc(-c4nc5ccccc5[nH]4)oc3c2)cnc1F [Example 23, N′-{5-[2-(1H-Benzimidazol-2-yl)-1,3-benzoxazol-6-yl]-2-fluoropyridin-3-yl}-N,N-dimethylsulfamide]	< 1000

Next, values leading:

IC50 [nM]	SMILES
< 1000	CCS(=O)(=O)Nc1cc(-c2ccc3nc(-c4nc(C)c(C)[nH]4)oc3c2)cnc1OC [Example 65, N-(5-(2-(4,5-Dimethyl-1H-imidazol-2-yl)benzo[d]oxazol-6-yl)-2-methoxypyridin-3-yl)ethanesulfonamide bis(trifluoroacetate)]
≥ 5000	COc1cc(-c2ccc3nc(-c4nc5ccccc5[nH]4)oc3c2)cnc1F [Example 69, 2-(1H-Benzo[d]imidazol-2-yl)-6-(6-fluoro-5-methoxypyridin-3-yl)benzo[d]oxazole bis(trifluoroacetate)]
≥ 5000	CCS(=O)(=O)Nc1cc(-c2ccc3nc(-c4nc5ccccc5[nH]4)oc3c2)cc(F)c1OC [Example 80, N-(5-(2-(1H-Benzo[d]imidazol-2-yl)benzo[d]oxazol-6-yl)-3-fluoro-2-methoxyphenyl)ethanesulfonamide bis(trifluoroacetate)]
< 1000	O=S(=O)(CC(F)(F)F)Nc1cc(-c2ccc3nc(-c4nc5ccccc5[nH]4)oc3c2)cnc1F [Example 75, N-(5-(2-(1H-Benzo[d]imidazol-2-yl)benzo[d]oxazol-6-yl)-2-fluoropyridin-3-yl)-2,2,2-trifluoroethanesulfonamide bis(trifluoroacetate)]
< 1000	OC(c1cncc(-c2ccc3nc(-c4ncc[nH]4)oc3c2)c1)C(F)(F)F (centres unmarked) [Example 61, 1-(5-(2-(1H-Imidazol-2-yl)benzo[d]oxazol-6-yl)pyridin-3-yl)-2,2,2-trifluoroethanol bis(trifluoroacetate)]
